Results: patent US7118885B2, “Nucleic acid encoding vitamin D receptor related polypeptide” (Pfizer Inc., priority 1997, dated 2006)

Assays:
VDRRg = biological target: T1, VDRRg (Homo sapiens, UniProt O75469); experiment: Similar reporter assays as used in WO 96/22390; assay type: cell-based; conditions: data not shown
T1 construct: expressed in transfected cells
T1 sequence (O75469 1-434): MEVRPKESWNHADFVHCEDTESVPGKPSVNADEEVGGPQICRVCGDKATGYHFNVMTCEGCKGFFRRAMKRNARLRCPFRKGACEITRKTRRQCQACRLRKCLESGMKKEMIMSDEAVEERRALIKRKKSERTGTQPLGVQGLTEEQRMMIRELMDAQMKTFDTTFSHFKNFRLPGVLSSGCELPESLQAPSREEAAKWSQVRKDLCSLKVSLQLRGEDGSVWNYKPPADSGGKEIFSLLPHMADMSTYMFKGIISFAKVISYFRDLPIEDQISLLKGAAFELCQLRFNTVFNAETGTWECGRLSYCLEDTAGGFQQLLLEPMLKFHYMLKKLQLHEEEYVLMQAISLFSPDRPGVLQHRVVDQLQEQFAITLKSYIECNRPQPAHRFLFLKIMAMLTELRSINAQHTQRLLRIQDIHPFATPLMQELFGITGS

VDRRγ = biological target: T2, VDRRγ (Homo sapiens, UniProt O75469); experiment: VDRRγ reporter gene assay in transiently transfected Caco-2 (TC7) cells
T2 sequence (O75469 1-434): T1 sequence (O75469 1-434)
Protocol: For identifying activators or ligands for VDRRγ, a library of substances structurally biased towards different classes of activators and ligands for nuclear receptors were tested. The activation of VDRRγ was analyzed in a reporter gene assay in transiently Caco-2 (TC7) cells (Carriere et al, 1994).

[1] = biological target: T3, GAL4-DBD/VDR-LBD fusion protein (Homo sapiens, UniProt P11473); experiment: Transient co-transfection of CV-1 cells, GAL4-DBD/VDR-LBD with GAL4-luciferase reporter; assay type: cell-based; conditions: vitamin D3 1 μM, 48 hours
T3 construct: fusion proteins of the GAL4-DBD fused to the LBD of either the VDR or the VDRR; expressed in transfected cells; host or cells: CV-1 cells
T3 sequence (P11473 127-423 limits assumed): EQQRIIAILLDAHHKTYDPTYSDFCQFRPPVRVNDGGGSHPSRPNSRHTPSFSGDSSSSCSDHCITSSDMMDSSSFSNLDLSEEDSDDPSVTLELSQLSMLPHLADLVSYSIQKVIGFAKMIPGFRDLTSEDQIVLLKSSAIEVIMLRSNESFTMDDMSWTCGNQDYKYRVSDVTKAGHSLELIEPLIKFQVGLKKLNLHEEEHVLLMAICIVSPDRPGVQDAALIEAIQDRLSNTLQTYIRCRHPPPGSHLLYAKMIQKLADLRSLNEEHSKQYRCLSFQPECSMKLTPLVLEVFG
Protocol: (§1) Transient transfections were performed to analyze if vitamin D3 activate the VDRRγ polypeptide. To this end, transient co-tansfections of CV-1 cells were performed with expression plasmids encoding fusion proteins of the GAL4-DBD fused to the LBD of either the VDR or the VDRR together with a reporter-plasmid containing five GAL4 responsive elements upstream of the luciferase gene. After transfection, cells were treated with vehicle (DMSO) alone or with vitamin D3 for 48 hours followed by harvesting of the cells and measurement of the luciferase activity in cell extracts.

[2] = biological target: T4, GAL4-DBD/VDRRγ-LBD fusion protein (Homo sapiens, UniProt O75469); experiment: Transient co-transfection of CV-1 cells, GAL4-DBD/VDRRγ-LBD with GAL4-luciferase reporter; assay type: cell-based; conditions: vitamin D3 1 μM, 48 hours
T4 construct: fusion proteins of the GAL4-DBD fused to the LBD of either the VDR or the VDRR; expressed in transfected cells; host or cells: CV-1 cells
T4 sequence (O75469 146-433 limits assumed): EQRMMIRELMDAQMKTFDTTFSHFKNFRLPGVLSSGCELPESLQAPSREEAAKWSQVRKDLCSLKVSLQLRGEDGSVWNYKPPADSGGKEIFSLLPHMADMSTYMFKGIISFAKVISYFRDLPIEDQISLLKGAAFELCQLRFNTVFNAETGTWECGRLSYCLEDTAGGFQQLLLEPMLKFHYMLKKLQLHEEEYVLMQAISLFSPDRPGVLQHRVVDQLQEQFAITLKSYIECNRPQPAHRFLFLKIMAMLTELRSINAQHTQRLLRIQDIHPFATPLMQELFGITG
Protocol: as §1

With CCCCOC(=O)c1ccc(N)cc1 [butyl 4-NH2 Benzoate] the “activation of VDRRg” value (VDRRg) was “did not activate”.
For CC(=O)[C@H]1[C@H](C#N)C[C@H]2[C@@H]3CC=C4C[C@@H](O)CC[C@]4(C)[C@H]3CC[C@@]21C [PCN, pregnenolone 16α-carbonitrile], the “activation of VDRRγ (in words)” value (VDRRγ; Caco-2 cells, 10 μM, FIG. 11) was “not activated” and the “activation of human VDRRγ polypeptides (summary statement)” value (VDRRγ; VDRRγ-1 and VDRRγ-2, no concentration given) was “not activated”.
In the case of CC#C[C@]1(O)CC[C@H]2[C@@H]3CCC4=CC(=O)CCC4=C3[C@@H](c3ccc(N(C)C)cc3)C[C@@]21C [RU486], the “increase in VDRRγ mediated reporter gene activity” value (VDRRγ) is reported as “slight increase (two fold)”.
With CC(=O)[C@H]1CC[C@H]2[C@@H]3CC[C@H]4CC(=O)CC[C@]4(C)[C@H]3CC[C@]12C [5α-pregnane-3,20-dione] the “activation of VDRRγ (in words)” value (VDRRγ; Caco-2 (TC7) cells, FIG. 10) was “did not activate”.
With C=C1CC[C@H](O)C/C1=C/C=C1\CCC[C@]2(C)[C@@H]([C@H](C)CCCC(C)C)CC[C@@H]12 [vitamin D3] the “transactivation of GAL4-DBD/VDR-LBD (luciferase activity)” value [1] was “transactivate” and the “transactivation of GAL4-DBD/VDRRγ-LBD (luciferase activity)” value [2] was “not”.
For CC(=O)[C@H]1CC[C@H]2[C@@H]3CC[C@@H]4CC(=O)CC[C@]4(C)[C@H]3CC[C@]12C [5β-pregnane-3,20-dione], the “activation of VDRRγ (in words)” value (VDRRγ; Caco-2 (TC7) cells, FIG. 10) was “efficient activation”.
